Reference: patent publication US20090081322A1, “Process for the preparation of antioxidant conserve from Indian curry leaves (MURRAYA KOENIGII SPRENG.)” (Council of Scientific and Industrial Research, priority 2002, published 2009)

Experiment: Antioxidant assay by β-carotene-linoleate model system
Type: biochemical
Conditions: 100 ppm concentration; β-carotene bleaching, 90 min incubation at 50° C.
Procedure: The antioxidant activity of curry leaves extract was evaluated by the β-carotene-linoleate model (Jayaprakasha and Jaganmohan Rao, Z. Naturforsch. 55C, 1018-1022, 2000). 0.2 mg of the β-carotene in 0.5 ml of chloroform, 20 mg of linoleic acid and 200 mg of Tween-40 (polyoxyethylene sorbitan monopalmitate) were mixed together. The chloroform was removed at 40° C. under vacuum using a rotary evaporator. The resulting solution was immediately diluted with 10 ml of triple-distilled water and the emulsion was mixed well for 1 min. The emulsion was further diluted with 40 ml of oxygenated water before use. 4 ml aliquots of this mixture were transferred into different tubes containing 0.2 ml of samples at 100 ppm concentrations in ethanol, butylated hydroxyanisole (BHA) was used for comparative purposes. A control containing 0.2 ml of ethanol and 4 ml of the above mixture was prepared. Optical density (OD) at 470 nm were taken for the all extracts and pure compounds immediately (t=0) at 15 min intervals for 1.5 h (t=90). […] The antioxidant activities (AA) of the samples were evaluated in terms of bleaching the β-carotene using the following formula. AA=100[1−(Ao−At)/(A^oo−A^ot)] where Ao and A^oo are the OD measured at zero time of incubation for test sample and control, respectively. At and A^ot are the OD measured in the test sample and control, respectively, after incubation for 90 min.

SMILES: COc1ccc(O)c(C(C)(C)C)c1 [BHA, butylated hydroxy anisole]
- antioxidant activity: 90.2%
